Assay results from patent US20190289849A1, “Novel Plant Growth Regulators and Methods of Using Same” (Duke University, priority 2016, published 2019).
pIC50: −log10 of the molar value. “Also recorded” adds a separate entry of the source.

Experiments:
Arabidopsis thaliana [1] = assay: Lateral root capacity (emerged lateral roots after removal of the primary root apical meristem); assay type: in vivo; details: for rescue of D15 inhibition of lateral root branching: D15-treated plants, apocarotenoid concentration varied for maximum rescue; for lateral root capacity / branching in combination with D15 (screen): 30 μM D15 plus apocarotenoid, normalized to D15 treatment
Arabidopsis = assay: High concentration (10 mM) apocarotenoid effects on plant growth; assay type: in vivo; details: for herbicidal effect when sprayed on plants / method of lethality (phenotype): 10 mM per FIG. 11; for lateral root growth / root length / shoot mass: 10 mM
Protocol: FIG. 10 illustrates the effect of high doses of β-cyclocitral and DHAD on root growth. A) The effect of adding small volumes of 10 mM apocarotenoids daily to either the shoots, root tip, or the middle of the root. B) A confocal image of a healthy root stained with propidium iodide, which marks dead cells. C) A root treated with 10 mM β-cyclocitral applied to the tip of the root.
FIG. 11 illustrates the effect of 10 mM apocarotenoids on plant development. A) The percent change in lateral root capacity, normalized to control plants. Abbreviations: dihydro-β-ionone (DHβI), dimethyl-β-cyclocitral (DMβC). β-cyclocitral (β-cyc), pseudoionone (PI), and dihydroactinidiolide (DHAD). B) Confocal image of a control root stained with propidium iodide. C) Image of a root treated with safranal. D) Images of leaves form a control plant. E) Images of leaves from a plant treated with pseudoionone.
At high concentrations (10 mM) of β-cyclocitral or DHAD, root length, shoot mass, and lateral root growth were inhibited. […] In one embodiment, safranal may be detrimental to Arabidopsis at concentrations as low as 500 μM.

lateral root primordia = assay: Lateral root primordia counts with WOX5 (stage 1) and EN7 (stage 3) markers, and primordia emergence; assay type: in vivo, Arabidopsis thaliana
Protocol: All seeds were in the Columbia-0 background. Seeds were sterilized with chlorine gas, incubated in 4° C. water for 2 days, and plated on 1% (wt/vol) Murashige and Skoog (1% MS) media with 1% agar. They were exposed to 100-130 μmol/(m^2s^1) illumination and grown vertically under long-day conditions at 22° C. Plants were analyzed at 7 days after stratification (das), unless noted otherwise. D15-treated media was made using D15 (N-(4-fluorobenzyl)-methoxycinnamic hydroxamic acid) synthesized by LeadGen Labs, LLC solubilized in DMSO. 100 mM D15 stock solution was diluted directly into 1% MS media for final concentrations ranging from 1 μM to 100 μM. For initial experiments testing the ability of apocarotenoids to rescue D15, plants were seeded on 1% MS media containing 30 μM D15 and 100 nM apocarotenoid (diluted from 1 mM stock solutions dissolved in DMSO). For subsequent experiments characterizing the effect of β-cyclocitral, plants were exposed to volatile analytical grade β-cyclocitral (≥97%, Sigma Aldrich) using 100×15 mm partitioned petri dishes. One side of the partition was filled with 25 μM β-cyclocitral diluted in 1% MS media. Seeds were plated on the other side of the partition, on 1% MS media. […] For norflurazone treatments, norflurazone (Chem Service) dissolved in DMSO was diluted to a final concentration of 500 nM norflurazone in 1% MS media. For all experiments, including those performed on tomatoes and rice, plants were never exposed to DMSO concentrations that exceeded 0.1%.
(§1) To measure lateral root capacity, the primary root apical meristem of each seedling was sterilely excised at 7 days. The plants were given 3 days to grow out lateral roots, and then each emerged lateral root was counted using a dissection microscope, as described previously (Van Norman et al., Proceedings of the National Academy of Sciences of the United States of America, 2014. 111(13): p. E1300-E1309). Luciferase activity was measured as previously described, using exposure times of 7 min (Moreno-Risueno, M. A., et al., Science, 2010. 329(5997): p. 1306-1311). WOX5^+ and EN7^+ primordia were counted using a stereo zoom microscope (Zeiss). Lateral and primary root lengths for Arabidopsis thaliana and tomato were measured using ImageJ (National Institutes of Health) software. 3D images of rice root architecture were captured using a 360° revolving platform and these images were analyzed using GiA Roots (www.giaroots.org), as described previously by Topp (2013). Primary root lengths were determined by dissecting the root and measuring the length with a ruler. Shoot mass was measured after removing the shoots and drying them for 10 days at 60° C.
First, the effect of D15 on lateral root branching was characterized and is shown FIG. 1. […] NCEDs are a sub-group of CCDs that cleave carotenoids at the 11, 12′ positions. […] By titrating D15 to its IC50 concentration (30 μM), the lateral root capacity was measured with enhanced sensitivity (FIGS. 1A-B). To determine how D15 inhibits lateral root branching, its effect on the lateral root clock, which establishes the sites of lateral root initiation, was examined. To test this, a synthetic promoter driving luciferase (pDR5:LUC) was utilized. In control roots, luminescence intensity oscillates every six hours (FIG. 1C). Only the root cells that experience the peak oscillation intensity become competent to form lateral root pre-branch sites. […] To further characterize the effect of D15 on lateral root initiation, its effect on two stages of primordia development was determined, as marked by WOX5 (pWOX5:GFP) and EN7 (pEN7:GAL4; UAS:H2A-GFP). These lines allow visualization of the QC at stage 1 of primordia development and the endodermis at stage 3 of development, respectively. […] This further supports the lateral root clock evidence that D15 inhibits the initiation of lateral root primordia.

Heinz tomatoes = assay: Tomato primary and lateral root growth; assay type: in vivo
Protocol: as §1, with “Heinz tomatoes were used for all tomato experiments. Seeds were sterilized using 40% liquid bleach for 30 min, then plated on 1% MS media in 120×120×17 mm square petri dishes. Seeds were kept in the dark at room temperature for 3 days, and then exposed to 100-130 μmol/(m^2s^1) illumination and grown vertically under long-day conditions at 22° C. For treating tomatoes, β-cyclocitral, norflurazone, and D15 were added directly to the media, at the concentrations described in the figures. Norflurazone was diluted to a final concentration of 1 μM in media. Tomato phenotypes were analyzed at 6 das. To measure” for “To measure”, “111(13): p. […]-[…]). Luciferase activity” for “111(13): p. E1300-E1309). Luciferase activity”

Arabidopsis thaliana [2] = assay: Primary and lateral root growth on exposure to volatile β-cyclocitral; assay type: in vivo
[3] = tested on: Azucena (tropical japonica) rice; assay: Rice root system architecture and shoot weight; assay type: in vivo
Protocol: as §1, with “Azucena (tropical japonica) seeds were dehulled and germinated in the dark for 3 days at 30° C. Germinated seeds were transferred to Yoshida's nutrient solution, solidified with 0.25% gelzan (Caisson Laboratories, Inc.), in 2 L glass cylinders, as described previously (Topp, C. N., et al., Proceedings of the National Academy of Sciences of the United States of America, 2013. 110(18): p. […]-[…].). Rice roots were imaged at 12 das. To measure” for “To measure”, “111(13): p. […]-[…]). Luciferase activity” for “111(13): p. E1300-E1309). Luciferase activity”

lateral root clock = assay: Lateral root clock luminescence (pDR5:LUC) and pre-branch sites; assay type: in vivo, Arabidopsis thaliana
Protocol: as §1
First, the effect of D15 on lateral root branching was characterized and is shown FIG. 1. […] By titrating D15 to its IC50 concentration (30 μM), the lateral root capacity was measured with enhanced sensitivity (FIGS. 1A-B). […]

LeCCD1 = details: in vitro; cited from earlier work
[4] = IC50 concentration of D15 (30 μM)

CC1=C(C=O)C(C)CCC1 (stereo not shown)
rescue of D15 inhibition of lateral root branching (Arabidopsis thaliana [1]): did not have the capacity to rescue
herbicidal effect when sprayed on plants (Arabidopsis): herbicidal effects

CC1=CC(=O)CC(C)(C)[C@@]1(O)/C=C/C(C)=C\C(=O)O [ABA, abscisic acid, reference compound]
lateral root capacity / branching in combination with D15 (screen) (Arabidopsis thaliana [1]): further decreased

CC1(C)CCC[C@@]2(C)OC(=O)C=C12 [DHAD, dihydroactinidiolide]
lateral root capacity / branching in combination with D15 (screen) (Arabidopsis thaliana [1]): increase lateral root branching
rescue of D15 inhibition of lateral root branching (Arabidopsis thaliana [1]): only partially rescue
lateral root growth (Arabidopsis): inhibited
root length (Arabidopsis): inhibited
shoot mass (Arabidopsis): inhibited

CC1=C[C@H](O/C=C2/C(=O)O[C@@H]3c4ccccc4C[C@H]23)OC1=O [GR24, reference compound]
lateral root capacity / branching in combination with D15 (screen) (Arabidopsis thaliana [1]): further decreased

CNc1cnn(-c2cccc(C(F)(F)F)c2)c(=O)c1Cl [norflurazone, 4-chloro-5-(methylamino)-2-(α,α,α-trifluoro-m-tolyl)-3(2H)-pyridazinone]
effect on lateral root development (primordia initiation, maintenance, development, emergence) (lateral root primordia; 500 nM norflurazone in media): blocks normal lateral root development; also recorded: blocked primordia initiation as well as maintenance, post-initiation development, and emergence
primary and lateral root growth (Heinz tomatoes; tomato, 1 μM norflurazone in media): decreased

CC(=O)/C=C/C=C(\C)CCC=C(C)C [pseudoionone]
herbicidal effect when sprayed on plants (Arabidopsis): herbicidal effects
method of lethality (phenotype) (Arabidopsis): caused plants to become chlorotic

CC1=C(C=O)C(C)(C)CC=C1 [safranal]
herbicidal effect when sprayed on plants (Arabidopsis): herbicidal effects
method of lethality (phenotype) (Arabidopsis): changed root cell morphology

CC1=C(C=O)C(C)(C)CCC1 [β-cyclocitral]
lateral root capacity / branching in combination with D15 (screen) (Arabidopsis thaliana [1]): increase lateral root branching
rescue of D15 inhibition of lateral root branching (Arabidopsis thaliana [1]): fully rescue
lateral root growth (Arabidopsis): inhibited
root length (Arabidopsis): inhibited
shoot mass (Arabidopsis): inhibited
root growth (Arabidopsis; 10 mM applied only to the root tip): sufficient to reduce root growth
WOX5+ primordia initiation (lateral root primordia; in D15-treated plants): did not rescue
WOX5+ sites (lateral root primordia; in the absence of D15): did not increase
number of EN7+ primordia (lateral root primordia; in the absence of D15, p=0.12): did increase
number of EN7+ primordia (lateral root primordia; in the presence of D15, p=0.02): did increase
primary and lateral root emergence (Arabidopsis thaliana [2]; exogenous volatile application, in the presence and absence of D15): increased
lateral root length (Arabidopsis thaliana [2]; with or without co-treatment of D15): increases
crown root growth ([3]; Azucena rice): dramatically increasing
primary root growth ([3]; Azucena rice): dramatically increasing
root system depth and compactness vs control plants ([3]; Azucena rice, 10 μM β-cyclocitral per FIG. 8): deeper and more compact
lateral root length ([3]; rice): decreased
shoot growth ([3]; rice): remained unchanged
dry shoot weight ([3]; rice plants): does not significantly change
rescue of D15 primary root inhibition (Heinz tomatoes; tomato, D15 plus exogenous β-cyclocitral): could not be rescued
lateral root length (Heinz tomatoes; tomato, dose-dependent): significant increase
rescue of primary root growth in norflurazone-treated plants (Heinz tomatoes; tomato, norflurazone plus β-cyclocitral): fully rescued
primary root length (Heinz tomatoes; tomato, uninhibited plants): significantly increased

CC(=O)/C=C/C1=C(C)CCCC1(C)C [β-ionone]
rescue of D15 inhibition of lateral root branching (Arabidopsis thaliana [1]): did not have the capacity to rescue

N-(4-fluorobenzyl)-methoxycinnamic hydroxamic acid [D15]
lateral root capacity, maximum effect (Arabidopsis thaliana [1]; 100 μM D15): completely inhibited
pIC50 (Arabidopsis thaliana [1]; D15 in 1% MS media, read-out: IC50 concentration for lateral root capacity): 4.52
decrease in number of stage 1 (WOX5) lateral root primordia (lateral root primordia; [4]): approximately 50%
decrease in number of stage 3 (EN7) lateral root primordia (lateral root primordia; [4]): approximately 50%
emergence of lateral root primordia compared to control roots (lateral root primordia; in vivo): did not inhibit
lateral root length (Heinz tomatoes; Heinz tomatoes, D15 treatment): does not decrease
primary root length (Heinz tomatoes; tomato, D15 treatment): decreased
lateral root branching (Heinz tomatoes; tomato, p=0.99): did not have a negative effect
peak oscillation intensity of pDR5:LUC luminescence vs control roots (lateral root clock; D15-treated roots (100 μM per FIG. 1)): significantly lower
number of pre-branch sites (lateral root clock; D15-treated roots, p=0.009): significantly decreased
enzyme preference, LeCCD1 compared to LeNCED1 (LeCCD1): preferentially targets LeCCD1
